Laboratory results taken from PubChem BioAssay (NCI).
Several values for one entry are separate records, joined by “and”; a condition that tells them apart may be missing. Equal values may be shown once.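 Values below derive from 48-hour exposures of cells grown in 96-well plates, with endpoints linearly interpolated between the two concentrations bracketing the appropriate inhibition level. GI50: concentration for 50% inhibition of growth. TGI is the concentration that stops growth completely.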

Legend:
Assay in all cases: NCI-60 cell line screen, 48 h
[1] = test system: 786-0 renal
[2] = test system: A498 renal
[3] = test system: A549 NSCLC
[4] = test system: ACHN renal
[5] = test system: BT-549 breast
[6] = test system: DU-145 prostate
[7] = test system: EKVX NSCLC
[8] = test system: HCC-2998 colon
[9] = test system: HCT-116 colon
[10] = test system: HCT-15 colon
[11] = test system: HL-60(TB) leukemia
[12] = test system: HOP-62 NSCLC
[13] = test system: HOP-92 NSCLC
[14] = test system: HS 578T breast
[15] = test system: HT29 colon
[16] = test system: IGROV1 ovarian
[17] = test system: K-562 leukemia
[18] = test system: KM12 colon
[19] = test system: LOX IMVI melanoma
[20] = test system: M14 melanoma
[21] = test system: MCF7 breast
[22] = test system: MDA-MB-231 breast
[23] = test system: MDA-MB-435
[24] = test system: MOLT-4 leukemia
[25] = test system: NCI-H226 lung
[26] = test system: NCI-H460 lung
[27] = test system: NCI-H522 lung
[28] = test system: NCI/ADR-RES ovarian
[29] = test system: OVCAR-3 ovarian
[30] = test system: OVCAR-4 ovarian
[31] = test system: OVCAR-5 ovarian
[32] = test system: OVCAR-8 ovarian
[33] = test system: PC-3 prostate
[34] = test system: RPMI-8226 leukemia
[35] = test system: SF-268 CNS
[36] = test system: SF-295 CNS
[37] = test system: SF-539 CNS
[38] = test system: SK-MEL-2 melanoma
[39] = test system: SK-MEL-28 melanoma
[40] = test system: SK-OV-3 ovarian
[41] = test system: SN12C renal
[42] = test system: SNB-19 CNS
[43] = test system: SNB-75 CNS
[44] = test system: SR leukemia
[45] = test system: SW-620 colon
[46] = test system: T-47D breast
[47] = test system: TK-10 renal
[48] = test system: U251 CNS
[49] = test system: UACC-257 melanoma
[50] = test system: UACC-62 melanoma
[51] = test system: UO-31 renal
[52] = test system: NCI-H23 lung
[53] = test system: RXF 393 renal

Structure (SMILES): CCCC(C(=O)Nc1cccc2[nH]cnc12)C(=O)OCC (stereo not given)
- TGI [1]: > 100 µM
- TGI [2]: > 100 µM
- TGI [3]: > 100 µM
- TGI [4]: > 100 µM
- TGI [5]: > 100 µM
- TGI [6]: > 100 µM
- TGI [7]: > 100 µM
- TGI [8]: > 100 µM
- TGI [9]: > 100 µM
- TGI [10]: > 100 µM
- TGI [11]: > 100 µM
- TGI [12]: > 100 µM
- TGI [13]: > 100 µM
- TGI [14]: > 100 µM
- TGI [15]: > 100 µM
- TGI [16]: > 100 µM
- TGI [17]: > 100 µM
- TGI [18]: > 100 µM
- TGI [19]: > 100 µM
- TGI [20]: > 100 µM
- TGI [21]: > 100 µM
- TGI [22]: > 100 µM
- TGI [23]: > 100 µM
- TGI [24]: > 100 µM
- TGI [25]: > 100 µM
- TGI [26]: > 100 µM
- TGI [27]: > 100 µM
- TGI [28]: > 100 µM
- TGI [29]: > 100 µM
- TGI [30]: > 100 µM
- TGI [31]: > 100 µM
- TGI [32]: > 100 µM
- TGI [33]: > 100 µM
- TGI [34]: > 100 µM
- TGI [35]: > 100 µM
- TGI [36]: > 100 µM
- TGI [37]: > 100 µM
- TGI [38]: > 100 µM
- TGI [39]: > 100 µM
- TGI [40]: > 100 µM
- TGI [41]: > 100 µM
- TGI [42]: > 100 µM
- TGI [43]: > 100 µM
- TGI [44]: > 100 µM
- TGI [45]: > 100 µM
- TGI [46]: > 100 µM
- TGI [47]: > 100 µM
- TGI [48]: > 100 µM
- TGI [49]: > 100 µM
- TGI [50]: > 100 µM
- TGI [51]: > 100 µM

Structure (SMILES): COc1cccc(/C=C/C(=O)N2CC(CCl)c3c2cc(N)c2ccccc32)c1 (stereo not given)
- TGI [2]: 0.0342 µM
- TGI [4]: 0.0024 µM
- GI50 [5]: 0.0142 µM
- TGI [7]: 0.145 µM and 0.0415 µM
- TGI [8]: 0.0166 µM
- TGI [9]: 1.27 µM
- TGI [10]: 0.224 µM
- TGI [14]: 0.0409 µM
- TGI [15]: 20 µM
- TGI [17]: > 100 µM
- TGI [18]: 0.0352 µM and 0.161 µM
- TGI [19]: 0.0065 µM
- TGI [20]: 0.105 µM
- TGI [21]: 0.00568 µM
- TGI [25]: 0.0425 µM
- TGI [52]: 0.0124 µM
- TGI [26]: 0.00325 µM
- TGI [27]: 0.00889 µM
- TGI [29]: 1.72 µM
- TGI [30]: 0.141 µM
- TGI [31]: 1.5 µM
- TGI [33]: 0.0562 µM and 0.132 µM
- TGI [34]: > 100 µM
- TGI [53]: 0.00342 µM
- TGI [36]: 0.00953 µM
- TGI [38]: 0.0224 µM
- TGI [40]: 1.16 µM
- TGI [42]: > 100 µM
- TGI [43]: 0.0153 µM
- TGI [45]: > 100 µM
- TGI [46]: 3.59 µM
- TGI [48]: 0.37 µM
- TGI [50]: 0.0224 µM
- TGI [51]: > 100 µM
